These results are taken from patent US20220090998A1, “URINE STABILIZATION” (QIAGEN GmbH, priority 2019, published 2022).

Experiment [1] deals with human 18S rDNA gene, 66 bp amplicon. Put plainly: Real time PCR of 18S rDNA 66 bp fragment in cell-free DNA from urine. The protocol:
(§1) Cell-free DNA from 4-4.8 ml stabilized or unstabilized urine was isolated with the QIAsymphony PAXgene Blood ccfDNA Kit (QIAGEN kit) protocol.
Total quantification was achieved by comparison with a standard curve generated with human genomic DNA samples equivalent to 10.000 to 10 copies of human 18s rDNA gene.
Quantification of the 500 bp was used to determine the amount of 18S rDNA copies which derived from apoptotic or mechanically lysed urine cells. […] Therefore 500 bp fragments can be considered to be derived from apoptotic, lysed or otherwise destructed urine cells.
All samples were processed in duplicates.
(§2) Cell-free DNA was subsequently purified on the QIAsymphony either directly after collection (t0) or after 1, 3 and 9 days incubation at room temperature. […] Relative yield of Y-chromosomale DYS14 DNA was determined from duplicate samples by real time PCR (no PCR replicates).
200 ml urine each from three donors was collected. […] For processing, the samples were centrifuged 15 min at 1900×g. Supernatant was centrifuged again (10 min 1900×g) and the supernatant from the second centrifugation was used for duplicate purification of cell-free DNA on a QIAsymphony system. The cell pellet obtained after the first centrifugation was resolved in 300 μl PBS. 200 μl of the resuspended cell pellet was used for extraction of the genomic DNA using the QIAamp Blood Mini kit. The remaining 100 μl were centrifuged on a glass slide and stained with Papanicolaou (see FIG. 7). […] Genomic DNA yield was measured on a Nanodrop instrument.
Supernatant was centrifuged again (10 min at 1900×g) and the supernatant from the second centrifugation was used for duplicate purification of cell-free DNA on the QIAsymphony.
For EDTA stabilized samples the overall increase in DNA can be deduced from the observed degradation (Dys 14—see FIG. 16) and increase (18s—see FIGS. 14 and 15).

The subject of experiment [2] is human 18S rDNA gene, 500 bp amplicon. The conditions noted are these: t0 to t4 d storage (FIG. 15).
Method: Cell-free DNA from 4-4.8 ml stabilized or unstabilized urine was isolated with the QIAsymphony PAXgene Blood ccfDNA Kit (QIAGEN kit) protocol. The QIAsymphony robot mixed urine with proteinase K, binding buffer and magnetic beads. Beads with bound DNA were washed three times and DNA was eluted using 60 μl elution buffer.
To measure the amount of cell-free DNA a real time PCR assay on Abi Prism HT7900 (Life technologies) was performed with 8 μl of eluate. In a 20 μl assay volume using QuantiTect Multiplex PCR Kit reagents (QIAGEN GmbH) two fragments of the human 18S rDNA gene were amplified in a multiplex PCR. Total quantification was achieved by comparison with a standard curve generated with human genomic DNA samples equivalent to 10.000 to 10 copies of human 18s rDNA gene.
Quantification of the 66 bp fragment was used to reflect the total amount of 18S rDNA copies in the urine. Quantification of the 500 bp was used to determine the amount of 18S rDNA copies which derived from apoptotic or mechanically lysed urine cells.
200 ml urine each from four female and two male donors was collected. Aliquots of 10 ml urine were mixed within 15 min after sampling with 1.7 ml PBS or stabilizing reagent. […] The copy numbers of 18s rDNA were determined from duplicate samples in triplicates by real time PCR.
In experiment [3] the test system is human Y-chromosomale DYS14 gene, 66 bp amplicon. As to the kind of experiment: Real time PCR for Y-chromosomal DYS14 DNA: preservation of male cell-free DNA spiked into female urine. The method, then: as §1
To measure the degradation of cell-free DNA, the relative yield of male cell-free DNA spiked into female samples was analyzed. A real time PCR assay on RotorGene Q (QIAGEN GmbH) was performed with 8 μl of eluate.
Urine from one donor was centrifuged twice to remove all cells from the urine for spike-in into female urine. Urine was collected in larger bottles from two female and two male donors. In case of the two female donors 25 ml centrifuged and therefore cell-free male urine was added to the 200 ml female urine. Approximately 120 ml urine from each donor was filled into BD Vacutainer Urine Collection Cups. Urine was transferred from the cups into two spray dried EDTA tubes, one PAXgene Blood ccfDNA tube and one Streck cell-free DNA BCT tube per donor. One of the EDTA tubes per donor was opened and 1.7 ml of stabilization reagent R1 was added. All tubes were carefully inverted 5 times to mix the urine with the components.
as §2
Urine from one donor was centrifuged twice to remove all cells from the urine for spike in into female urine. 200 ml urine each from six female donors were collected in large bottles and mixed with 25 ml cell-free male urine directly after collection. Aliquots of 10 ml urine ([…]) were mixed with 1.7 ml reagent. […] All samples were processed in duplicates. Real time PCR for y-chromosomale DYS14 DNA was performed from duplicate samples.
To analyse the effect of pH on cell-free DNA preservation, urine from one donor was centrifuged twice to remove all cells from the urine for spike in into female urine. 200 ml urine each from four female donors were collected in large bottles and mixed with 25 ml cell-free male urine directly after collection. […]

`O=C(O)CN(CCN(CC(=O)O)CC(=O)O)CC(=O)O` [EDTA, Ethylenediaminetetraacetic acid]: the “Delta Ct t0-t4 d 18 s 66 bp” value in experiment [1] (4 days storage at RT (FIG. 14)) amounted to 2. The “total DNA in urine over storage (18s rDNA 66 bp copies versus t0), words” value in experiment [1] (Example 2, BD Vacutainer cup to tubes, 1, 3 and 9 days at RT, 4 donors (FIG. 3)) is given as “nor an increase in total DNA comprised in the urine due to DNA release from cells”. Also, in experiment [1] (deduced from observed degradation (Dys 14) and increase (18s), t0 to t4 d), the “Overall increase (in DNA resulting from cells)” value worked out at 4 × 4 = 16 fold. Moreover, in experiment [1] (t0 to t4 d at RT), the “Increase (of 18S 66 bp DNA, from Delta Ct)” value is on record as 4 fold. In addition, in experiment [1] (t0 to t4 d storage (FIG. 14)), the “change in the 66 bp fragment” value is “small increase”. In experiment [2], the “decrease in the 500 bp fragment” value was “approx. 32 fold”. The “preservation of spiked in male cell-free DNA (DYS14 delta Ct versus t0), words” value in experiment [3] (Example 2, 2 female donors, 1, 3 and 9 days at RT (FIG. 4)) is given as “neither prevents sufficiently cell free DNA degradation”. Besides, the “Delta Ct t0-t4 d Dys 14” value in experiment [3] (male cell-free urine spiked in female urine, 4 days storage at RT (FIG. 16)) was approximately 2. For the same compound, in experiment [3] (t0 to t4 d at RT), the “Reduction (of DYS14 DNA, from Delta Ct)” value came to 4 fold.
